From ChEMBL document CHEMBL1137953, “A novel approach to the synthesis of cytotoxic C2-C3 unsaturated pyrrolo[2,1-c]benzodiazepines (PBDs) with conjugated acrylyl C2-substituents” (2004) come the findings set out here.

Common to all, as to type: functional
The subject of one experiment is RXF 393. Nature of the experiment: Compound was evaluated for growth inhibition of renal RXF-393 cell line in NCI 60-cell line screen. Conditions: Homo sapiens.
Another experiment relates to CCRF-CEM. Nature of the experiment: Compound was evaluated for growth inhibition of leukemia CCRF-CEM cell line in NCI 60-cell line screen. Conditions: Homo sapiens.
The nature of experiment [1]: Lethal concentration of compound was evaluated against 60 cell lines in NCI screen.
The test system of another experiment is UACC-257. Nature of the experiment: Compound was evaluated for growth inhibition of melanoma UACC-257 cell line in NCI 60-cell line screen. Particulars: Homo sapiens.
In the next experiment the test system is U-251. Nature of the experiment: Compound was evaluated for growth inhibition of central nervous system U251 cell line in NCI 60-cell line screen. Particulars: Homo sapiens.
The nature of experiment [2]: Compound was evaluated for growth inhibition of 60 cell lines in NCI screen.
The test system of the next experiment is MCF7. Nature of the experiment: Compound was evaluated for growth inhibition of breast MCF-7 cell line in NCI 60-cell line screen. Conditions: Homo sapiens.
A further experiment concerns PC-3. Nature of the experiment: Compound was evaluated for growth inhibition of prostate PC-3 cell line in NCI 60-cell line screen. Conditions: Homo sapiens.
The next experiment relates to HCT-116. Nature of the experiment: Compound was evaluated for growth inhibition of colon HCT116 cell line in NCI 60-cell line screen. Conditions: Homo sapiens.
Experiment [3] can be described thus: Compound was evaluated for total growth inhibition of 60 cell lines in NCI screen.
In a further experiment the test system is OVCAR-5. Nature of the experiment: Compound was evaluated for growth inhibition of ovarian OVCAR-5 cell line in NCI 60-cell line screen. Particulars: Homo sapiens.
In another experiment the test system is HOP-92. Nature of the experiment: Compound was evaluated for growth inhibition of non-small cell lung HOP-92 cell line in NCI 60-cell line screen. Particulars: Homo sapiens.

For the compound `Cc1ccc2c(c1O)NC(O)C1CC(/C=C/C(N)=O)=CN1C2=O` (stereo not given) [ANTHRAMYCIN], the GI50 amounted to 31.6 nM in the experiment on RXF 393; 20 nM with CCRF-CEM; 63.1 nM in the experiment with UACC-257; 20 nM with U-251; 29 nM in experiment [2]; 39.8 nM in the experiment with MCF7. Also, the GI50 is 20 nM in the experiment with PC-3, 39.8 nM in the experiment with HCT-116, 50.1 nM in the experiment on OVCAR-5 and 20 nM with HOP-92. In addition, the LC50 (50% lethal concentration) in experiment [1] is 12700 nM. Further, in [3], net growth stopped (TGI) at 610 nM.
`COc1cc2c(cc1OC)C(=O)N1C=C(/C=C/C(=O)N(C)C)C[C@H]1C=N2`: the GI50 in the experiment on RXF 393 came to 1.65 nM; in the experiment with CCRF-CEM, 0.6 nM; in the experiment on UACC-257 it was 0.25 nM; in the experiment on U-251, 3.33 nM; in [2], 12 nM; in the experiment on MCF7, 7.15 nM. For the same compound, the GI50 amounted to 18.6 nM in the experiment with PC-3, 11.7 nM in the experiment on HCT-116, 3.21 nM in the experiment on OVCAR-5 and 2.34 nM in the experiment with HOP-92. In [1], this compound registered an LC50 (50% lethal concentration) of 650 nM. For the same compound, in experiment [3], net growth stopped (TGI) at 96 nM.
In experiment [1], `COc1cc2c(cc1OC)C(=O)N1C=C(/C=C/C(N)=O)C[C@H]1C=N2` came in with an LC50 (50% lethal concentration) of 69200 nM. In experiment [2], this compound displayed a GI50 of 53 nM. The compound also had a TGI in experiment [3] of 3720 nM.
On the same counts, the results for `COC(=O)/C=C/C1=CN2C(=O)c3cc(OC)c(OC)cc3N=C[C@@H]2C1` are 55000 nM, 13 nM and 1320 nM.

One may read the GI50 as the concentration giving 50% growth inhibition. A lower GI50 goes with greater sensitivity of the cells. For orientation: TGI means the concentration giving total growth inhibition. The low end stands for greater sensitivity of the cells, the high end for lower sensitivity of the cells.
